Experimental data taken from article PMC9851200, “Multiparameter phenotypic screening for endogenous TFEB and TFE3 translocation identifies novel chemical series modulating lysosome function” (Autophagy, 2022).

Key:
Format in all cases: binding
[1] = molecular target: kinases (KINOMEscan panel) (Homo sapiens, UniProt Q9UM73, L1196M); details: kinase ALK(L1196M); NEW KINOMEscan
[2] = molecular target: kinases (KINOMEscan panel) (Plasmodium falciparum, UniProt P62344); details: PFCDPK1(P.falciparum); NEW KINOMEscan
kinases (KINOMEscan panel) (Plasmodium falciparum, UniProt P62344), sequence (P62344 whole entry): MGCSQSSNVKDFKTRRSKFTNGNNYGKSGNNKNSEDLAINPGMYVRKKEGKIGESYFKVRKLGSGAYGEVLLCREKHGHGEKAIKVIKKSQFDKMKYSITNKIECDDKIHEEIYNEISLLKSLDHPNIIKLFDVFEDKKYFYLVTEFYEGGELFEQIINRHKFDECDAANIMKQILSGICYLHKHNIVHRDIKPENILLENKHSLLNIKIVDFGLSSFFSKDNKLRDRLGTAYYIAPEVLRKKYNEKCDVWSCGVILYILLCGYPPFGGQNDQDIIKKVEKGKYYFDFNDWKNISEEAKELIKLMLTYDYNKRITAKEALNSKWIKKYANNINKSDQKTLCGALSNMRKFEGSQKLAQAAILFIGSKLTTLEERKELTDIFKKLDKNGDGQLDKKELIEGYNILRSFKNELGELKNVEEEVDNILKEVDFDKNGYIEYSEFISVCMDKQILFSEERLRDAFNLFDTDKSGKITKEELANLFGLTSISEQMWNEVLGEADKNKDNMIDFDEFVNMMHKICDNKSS

[3] = molecular target: kinases (KINOMEscan panel) (Homo sapiens, UniProt P31751); details: NEW KINOMEscan
kinases (KINOMEscan panel) (Homo sapiens, UniProt P31751), sequence (P31751 whole entry): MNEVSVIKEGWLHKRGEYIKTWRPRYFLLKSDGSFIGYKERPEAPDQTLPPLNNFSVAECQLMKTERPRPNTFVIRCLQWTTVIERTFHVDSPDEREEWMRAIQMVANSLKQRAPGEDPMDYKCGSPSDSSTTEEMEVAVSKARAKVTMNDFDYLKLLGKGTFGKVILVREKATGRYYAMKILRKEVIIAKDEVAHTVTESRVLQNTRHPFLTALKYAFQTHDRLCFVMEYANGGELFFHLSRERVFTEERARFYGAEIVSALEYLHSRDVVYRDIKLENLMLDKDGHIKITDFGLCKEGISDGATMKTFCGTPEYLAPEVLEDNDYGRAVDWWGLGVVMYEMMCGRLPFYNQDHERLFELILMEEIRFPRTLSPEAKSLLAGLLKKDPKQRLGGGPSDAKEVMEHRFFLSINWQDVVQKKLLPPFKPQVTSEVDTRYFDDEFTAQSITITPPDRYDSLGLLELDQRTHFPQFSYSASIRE

[4] = molecular target: T1, kinases (KINOMEscan panel) (Homo sapiens, UniProt Q16832); details: DDR2; NEW KINOMEscan
T1 sequence (Q16832 22-855): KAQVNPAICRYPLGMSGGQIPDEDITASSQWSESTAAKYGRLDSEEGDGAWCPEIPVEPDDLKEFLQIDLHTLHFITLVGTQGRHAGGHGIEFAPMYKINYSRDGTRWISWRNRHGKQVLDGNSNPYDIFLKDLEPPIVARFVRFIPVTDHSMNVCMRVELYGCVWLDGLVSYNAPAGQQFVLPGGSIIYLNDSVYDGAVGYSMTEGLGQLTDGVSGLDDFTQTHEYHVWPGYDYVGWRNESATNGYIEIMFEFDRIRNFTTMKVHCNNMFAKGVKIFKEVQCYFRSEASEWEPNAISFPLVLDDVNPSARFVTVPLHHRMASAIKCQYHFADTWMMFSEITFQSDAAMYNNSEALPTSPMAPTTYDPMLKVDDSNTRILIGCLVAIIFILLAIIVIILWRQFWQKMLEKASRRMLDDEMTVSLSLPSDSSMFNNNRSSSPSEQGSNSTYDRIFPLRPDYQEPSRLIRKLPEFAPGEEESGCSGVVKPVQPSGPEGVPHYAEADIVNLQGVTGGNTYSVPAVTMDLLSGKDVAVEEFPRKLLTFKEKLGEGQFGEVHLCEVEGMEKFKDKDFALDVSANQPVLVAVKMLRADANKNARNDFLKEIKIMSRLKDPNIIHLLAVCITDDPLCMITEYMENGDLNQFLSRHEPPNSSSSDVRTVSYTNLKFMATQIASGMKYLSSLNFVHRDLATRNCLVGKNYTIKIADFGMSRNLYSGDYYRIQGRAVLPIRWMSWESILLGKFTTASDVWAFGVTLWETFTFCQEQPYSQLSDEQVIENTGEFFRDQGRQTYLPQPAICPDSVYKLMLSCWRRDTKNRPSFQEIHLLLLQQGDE

[5] = molecular target: T2, kinases (KINOMEscan panel) (Homo sapiens, UniProt P57078); details: RIPK4; NEW KINOMEscan
T2 sequence (P57078 1-832): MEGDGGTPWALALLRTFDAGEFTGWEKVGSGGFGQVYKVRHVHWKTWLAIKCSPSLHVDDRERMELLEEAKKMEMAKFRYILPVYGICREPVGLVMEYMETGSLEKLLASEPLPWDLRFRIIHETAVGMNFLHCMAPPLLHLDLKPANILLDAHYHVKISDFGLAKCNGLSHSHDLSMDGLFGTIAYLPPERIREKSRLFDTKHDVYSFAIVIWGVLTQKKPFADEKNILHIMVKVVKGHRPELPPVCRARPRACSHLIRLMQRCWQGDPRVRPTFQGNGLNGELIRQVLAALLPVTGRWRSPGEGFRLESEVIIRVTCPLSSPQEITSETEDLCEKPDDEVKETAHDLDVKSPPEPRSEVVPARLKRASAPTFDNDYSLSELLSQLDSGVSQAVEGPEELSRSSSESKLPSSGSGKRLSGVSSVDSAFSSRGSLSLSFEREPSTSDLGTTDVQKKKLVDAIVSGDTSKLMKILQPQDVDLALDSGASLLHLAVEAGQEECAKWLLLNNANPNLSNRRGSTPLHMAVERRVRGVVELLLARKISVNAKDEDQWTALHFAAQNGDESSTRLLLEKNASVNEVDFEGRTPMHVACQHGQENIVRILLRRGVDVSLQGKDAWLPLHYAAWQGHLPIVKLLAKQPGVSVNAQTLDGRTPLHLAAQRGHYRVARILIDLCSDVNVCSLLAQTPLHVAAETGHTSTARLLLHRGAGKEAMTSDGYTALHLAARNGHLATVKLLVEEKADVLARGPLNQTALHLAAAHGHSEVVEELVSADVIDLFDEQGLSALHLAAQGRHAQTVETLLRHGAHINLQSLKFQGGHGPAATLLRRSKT

[6] = molecular target: T3, kinases (KINOMEscan panel) (Homo sapiens, UniProt O00329); details: NEW KINOMEscan
T3 sequence (O00329 1-1044): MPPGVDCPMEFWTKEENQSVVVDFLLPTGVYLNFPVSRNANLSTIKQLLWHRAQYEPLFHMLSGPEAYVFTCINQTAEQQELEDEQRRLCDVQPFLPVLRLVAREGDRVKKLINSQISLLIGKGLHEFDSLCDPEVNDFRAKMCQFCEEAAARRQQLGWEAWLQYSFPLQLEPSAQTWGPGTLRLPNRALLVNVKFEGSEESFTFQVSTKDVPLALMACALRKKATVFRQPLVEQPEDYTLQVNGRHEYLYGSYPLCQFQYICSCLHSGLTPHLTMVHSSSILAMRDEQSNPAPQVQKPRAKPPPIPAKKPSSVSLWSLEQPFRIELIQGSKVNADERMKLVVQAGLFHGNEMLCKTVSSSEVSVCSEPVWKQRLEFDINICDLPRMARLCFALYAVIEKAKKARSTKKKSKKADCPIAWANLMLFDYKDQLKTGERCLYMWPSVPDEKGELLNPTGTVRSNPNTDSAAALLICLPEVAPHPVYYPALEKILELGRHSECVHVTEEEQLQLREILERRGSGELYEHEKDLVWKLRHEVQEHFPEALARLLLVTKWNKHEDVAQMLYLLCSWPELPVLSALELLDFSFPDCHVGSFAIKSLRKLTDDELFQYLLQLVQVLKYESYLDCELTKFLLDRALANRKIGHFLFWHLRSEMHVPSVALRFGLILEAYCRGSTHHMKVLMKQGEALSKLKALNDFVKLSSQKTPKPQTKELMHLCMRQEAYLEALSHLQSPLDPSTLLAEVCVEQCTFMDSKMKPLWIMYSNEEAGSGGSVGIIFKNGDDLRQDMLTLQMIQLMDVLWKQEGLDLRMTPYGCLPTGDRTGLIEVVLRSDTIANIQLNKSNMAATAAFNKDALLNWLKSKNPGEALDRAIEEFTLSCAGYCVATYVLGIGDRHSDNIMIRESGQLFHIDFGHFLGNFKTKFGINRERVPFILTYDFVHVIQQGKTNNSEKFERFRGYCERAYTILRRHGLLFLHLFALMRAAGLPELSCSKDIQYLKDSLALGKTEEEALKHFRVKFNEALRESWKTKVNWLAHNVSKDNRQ

kinases (KINOMEscan panel) (Homo sapiens, UniProt Q9UM73, L1196M), sequence (Q9UM73 19-1620 L1196M): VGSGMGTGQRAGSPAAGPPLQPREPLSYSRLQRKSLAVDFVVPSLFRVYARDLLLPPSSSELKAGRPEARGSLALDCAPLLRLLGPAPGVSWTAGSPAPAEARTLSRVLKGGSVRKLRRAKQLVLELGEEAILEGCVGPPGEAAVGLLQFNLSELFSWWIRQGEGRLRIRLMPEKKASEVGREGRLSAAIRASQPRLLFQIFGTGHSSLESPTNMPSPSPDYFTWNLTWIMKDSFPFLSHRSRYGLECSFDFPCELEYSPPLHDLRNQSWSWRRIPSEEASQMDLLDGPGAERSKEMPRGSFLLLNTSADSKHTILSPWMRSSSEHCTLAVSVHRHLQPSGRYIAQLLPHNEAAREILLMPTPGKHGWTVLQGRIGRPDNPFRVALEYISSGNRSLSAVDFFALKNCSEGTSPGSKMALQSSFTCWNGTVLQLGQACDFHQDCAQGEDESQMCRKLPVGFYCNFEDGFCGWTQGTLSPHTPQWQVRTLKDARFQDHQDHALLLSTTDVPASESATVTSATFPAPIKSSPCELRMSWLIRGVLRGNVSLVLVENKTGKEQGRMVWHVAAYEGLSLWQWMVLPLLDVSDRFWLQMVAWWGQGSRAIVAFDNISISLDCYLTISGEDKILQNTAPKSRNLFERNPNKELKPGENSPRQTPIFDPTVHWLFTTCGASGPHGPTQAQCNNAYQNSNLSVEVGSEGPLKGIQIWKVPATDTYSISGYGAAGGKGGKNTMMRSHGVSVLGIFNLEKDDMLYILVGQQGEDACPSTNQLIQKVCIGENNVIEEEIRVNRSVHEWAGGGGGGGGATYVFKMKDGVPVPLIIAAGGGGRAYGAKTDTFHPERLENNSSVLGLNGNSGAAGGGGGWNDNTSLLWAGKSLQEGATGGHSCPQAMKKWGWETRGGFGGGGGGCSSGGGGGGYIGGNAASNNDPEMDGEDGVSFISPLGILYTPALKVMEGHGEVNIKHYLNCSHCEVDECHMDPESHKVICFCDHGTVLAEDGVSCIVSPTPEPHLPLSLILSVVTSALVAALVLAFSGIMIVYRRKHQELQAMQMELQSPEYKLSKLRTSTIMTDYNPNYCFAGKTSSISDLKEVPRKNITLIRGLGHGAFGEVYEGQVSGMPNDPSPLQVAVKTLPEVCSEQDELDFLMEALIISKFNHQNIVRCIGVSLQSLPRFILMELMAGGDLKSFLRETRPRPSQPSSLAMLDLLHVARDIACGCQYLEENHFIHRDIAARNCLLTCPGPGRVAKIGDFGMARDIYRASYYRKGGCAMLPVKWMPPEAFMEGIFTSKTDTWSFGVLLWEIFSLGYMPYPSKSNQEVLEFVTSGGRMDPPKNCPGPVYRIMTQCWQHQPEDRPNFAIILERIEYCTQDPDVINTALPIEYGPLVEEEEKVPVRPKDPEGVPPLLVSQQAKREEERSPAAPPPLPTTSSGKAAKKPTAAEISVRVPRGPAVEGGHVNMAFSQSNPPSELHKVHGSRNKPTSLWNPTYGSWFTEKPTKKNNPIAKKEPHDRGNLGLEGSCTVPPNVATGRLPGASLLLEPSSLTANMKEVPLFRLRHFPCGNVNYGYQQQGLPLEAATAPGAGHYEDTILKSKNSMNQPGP

Row | Structure (SMILES) | KINOMEscan ALK(L1196M) [1] | KINOMEscan PFCDPK1(P.falciparum) [2] | KINOMEscan AKT2 [3] | KINOMEscan DDR2 [4] | KINOMEscan RIPK4 [5] | KINOMEscan PIK3CD [6]
1 | Cc1cccc(-c2nc(Nc3ccc4nn(C)cc4c3)c3ccccc3n2)n1 [NK167] | 0 | 0 | 28 | 2 | 0 | 0
2 | Cc1cccc(-c2nc(N(C)c3ccc4ncsc4c3)c3ccccc3n2)n1 [NK-161] | 0 | 0 | 19 | 1 | 0 | 2
